# Like-named read-outs stand apart in the source and are kept apart here.
# Key:
# Human PTP1B = target: T1, Human PTP1B (Homo sapiens, UniProt P18031); test: In vitro phosphatase activity assay (DiFMUP assay); type: biochemical
# T1 construct: His6 (N); made in house; host or cells: E. coli BL21 DE3
# T1 sequence (P18031 1-435): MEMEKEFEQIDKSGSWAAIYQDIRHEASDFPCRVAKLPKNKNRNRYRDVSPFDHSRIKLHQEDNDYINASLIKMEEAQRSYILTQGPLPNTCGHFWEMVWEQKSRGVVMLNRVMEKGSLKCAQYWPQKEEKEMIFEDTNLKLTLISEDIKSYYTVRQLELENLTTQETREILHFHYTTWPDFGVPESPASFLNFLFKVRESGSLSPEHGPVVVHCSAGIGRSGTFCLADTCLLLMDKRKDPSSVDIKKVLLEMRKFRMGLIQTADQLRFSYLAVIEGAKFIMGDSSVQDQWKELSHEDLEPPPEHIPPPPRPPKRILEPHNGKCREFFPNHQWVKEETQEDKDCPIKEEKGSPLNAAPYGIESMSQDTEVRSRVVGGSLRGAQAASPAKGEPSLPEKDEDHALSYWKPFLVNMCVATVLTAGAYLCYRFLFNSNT
# Excerpt: To determine the value of CHBOs in drug discovery, we constructed a synthetically accessible library of CHBOs based on the substrate scope of the reaction we newly developed. […] To explore the relationship between inhibitor activity of 3ak against PTP1B and the stereochemistry, two enantiomers (S, S)-3ak and (R, R)-3ak were synthesized and evalutated in the DiFUMP assay (Figure a). […]
# Protein expression and purification7: Human PTP1B construct was subcloned into pET28a(+) vector, which contains an N-terminal His6-tag. BL21 DE3 E. coli cells were transformed as follows: 2 µL of plasmid(100 ng/µL) and 200 µL of DE3 cells were incubated for 30 min on ice, a 45 second heat shock at […], 2 min on ice, recovery with 800 µL SOC for 1 h at 37 ℃ followed by plating on a Kanamycin agar plate (50µg/mL).One colony was picked and used to inoculate 10 mL of LB media supplemented with kanamycin (50µg/mL).When the culture reached OD600 = 0.6, 10mL were transferred to one liter of LB media supplemented with Kanamycin (50 µg/mL) and grown at 37 ℃ to an OD600 = 0.6. Media is transferred to a 16 ℃ incubator. Then, the media was supplemented with 500 µM Isopropyl β-D-1-thiogalactopyranoside (IPTG) at OD600 = 0.8 and incubated for 16 h. Cells were centrifuged (4000 rpm, 20 min) and liquid was decanted. Cells were resuspended in lysis buffer (50 mM HEPES, pH 7.4, 150 mM KCl, 5 mM MgCl2, 5% glycerol, 1 mM phenylmethane sulfonyl fluoride (PMSF), 2 mM 2-mercaptoethanol (β-met)). Cells were lysed in a cell crusher (pressure 1000 bar), the mixed products were collected, centrifuged (12000 rpm, 4°C, 20 min), and the supernatant was left to discard the precipitate. The nickel column was first equilibrated with equilibration solution, and then the protein supernatant was up-sampled twice to bind the protein. The proteins were then gradually eluted with imidazole (10, 20, 60, 200 mM imidazole).
# The target protein-containing fractions confirmed by SDS PAGE were placed in […] MWCO protein ultrafiltration tubes and the imidazole were replaced with dialysis buffer (20 mM HEPES, 150 mM KCl, 1 mM MgCl2). After the imidazole was removed cleanly, an equal volume of glycerol was added as a protective solution. When concentration was determined to be greater than or equal to 1 mg /mL, protein was frozen with liquid nit rogen. Protein was then stored in a -80 ℃ freezer.
# In Vitro Phosphatase Activity Assays8:Incubate 1 nM purified PTP1B protein with positive control or compound to be tested in reaction buffer (25 mM Bis-Tris propane pH 7.5, […]
# 50 mM NaCl, 2 mM EDTA, 2 mM DTT) for 10 min at 37°C in a total volume of 90 μL. Add 10 μL of substrate buffer containing DiFMUP (final concentration of 10 μM) to the reaction buffer […]
# The fluorescence intensity at 455 nm was read using a multifunctional reader with 358 nm as the excitation light, and the measured fluorescence value was used to calculate the inhibition rate of the enzyme activity by the sample over the value of the blank wells. The IC50 values of the compounds were calculated by Graphpad Prism 7.0, using a non-linear fit of the inhibition rate to the concentration of the inhibitor. […]
# MB231 cells = test: Cellular anti-cancer immunity assay (cancer cell growth inhibition with or without IFNγ, CCK8); type: cell-based; conditions: MB231 cell line; 0.5 ng/ml IFNγ or medium alone; 3 days
# Excerpt: We further evaluated (S, S)-3ak with a cellular anticancer immunity assay. The assay measures the inhibition of cancer cell growth by compounds with or without cytokine IFNγ. , The synergy of testing compounds and IFNγ in inhibiting cancer cells implicates the testing compound contributes anticancer immunity. The synergy index is defined by the formula index = (IC50 ^IFNγ– – IC50 ^IFNγ+)/IC50 ^IFNγ+. […] In other words, we identified (S, S)-3ak as a promising PTP1B inhibitor, preparing for the coming hit-lead-candidate optimization.
# 50 mM NaCl, 2 mM EDTA, 2 mM DTT) for 10 min at 37°C in a total volume of 90 μL. […] The fluorescence intensity at 455 nm was read using a multifunctional reader with 358 nm as the excitation light, and the measured fluorescence value was used to calculate the inhibition rate of the enzyme activity by the sample over the value of the blank wells. The IC50 values of the compounds were calculated by Graphpad Prism 7.0, using a non-linear fit of the inhibition rate to the concentration of the inhibitor. […]
# Cellular anti-cancer immunity assay9: MB231 cells were seeded at a density of 5000 cells per well in a 96-well plate and incubated at 37 °C. […] PTP1B inhibitors, including Osunprotafib as the positive control, were added, and cell confluence was monitored for 3 days. […]
# [1] = PTP1B lC50 (μM), DiFMUP assay at room temperature, positive control ABBV-CLS-484, negative control DMSO
# [2] = DiFMUP assay at room temperature, positive control ABBV-CLS-484, negative control DMSO, read-out: PTP1B lC50
# [3] = DiFMUP assay at room temperature, positive control ABBV-CLS-484, negative control DMSO
smiles,measurement,setting,value
O=C1O[C@@H]([C@@]2(O)C(=O)N(Cc3ccccc3)c3ccccc32)C=C1c1ccccc1 [6a],IC50,Human PTP1B,10 to 30 µM
same,IC50,Human PTP1B; [1],29.7 ± 0.56 µM
Cc1ccc(C2=C[C@H]([C@@]3(O)C(=O)N(Cc4ccccc4)c4ccccc43)OC2=O)cc1 [6ab],IC50,Human PTP1B; [2],6.68 ± 0.88 µM
Cc1ccc(C2=C[C@H]([C@@]3(O)C(=O)N(Cc4ccccc4)c4cccc(Br)c43)OC2=O)cc1 [6ac],PTP1B lC50,Human PTP1B; [3],9.13 ± 0.62 µM
COc1ccc(C2=C[C@H]([C@@]3(O)C(=O)N(Cc4ccccc4)c4ccccc43)OC2=O)cc1 [6ad],PTP1B lC50,Human PTP1B; [3],7.82 ± 1.44 µM
COc1ccc(C2=C[C@H]([C@@]3(O)C(=O)N(Cc4ccccc4)c4cccc(Br)c43)OC2=O)cc1 [6ae],PTP1B lC50,Human PTP1B; [3],11.17 ± 2.87 µM
O=C1OC(C2(O)C(=O)N(Cc3ccccc3)c3cccc(Br)c32)C=C1c1ccc2c(c1)OCO2 (stereo not drawn) [6ah],IC50,Human PTP1B,0.29 to 1.58 µM
same,IC50,Human PTP1B; [1],0.92 ± 0.18 µM
COc1ccc(C2=C[C@H]([C@@]3(O)C(=O)N(Cc4ccccc4)c4cccc(Br)c43)OC2=O)cc1OC [6ai],PTP1B lC50,Human PTP1B; [3],22.65 ± 0.75 µM
O=C1O[C@@H]([C@@]2(O)C(=O)Nc3ccccc32)C(c2ccccc2)=C1c1ccccc1 [6am],PTP1B lC50,Human PTP1B; [3],4.03 ± 0.45 µM
CC1CCC(C(C)C)C(OC(=O)c2ccc(C3=C(c4ccccc4)C(=O)OC3C3(O)C(=O)Nc4ccccc43)cc2)C1 (stereo not drawn) [6au],IC50,Human PTP1B,0.29 to 1.58 µM
same,IC50,Human PTP1B; [1],1.56 ± 0.24 µM
O=C1O[C@@H]([C@@]2(O)C(=O)Nc3ccccc32)C=C1c1ccccc1 [6b],PTP1B lC50,Human PTP1B; [3],6.93 ± 0.77 µM
O=C1O[C@@H]([C@@]2(O)C(=O)N(Cc3ccccc3)c3cccc(Cl)c32)C=C1c1ccccc1 [6d],IC50,Human PTP1B,10 to 30 µM
same,IC50,Human PTP1B; [1],17.8 ± 1.2 µM
O=C1O[C@@H]([C@@]2(O)C(=O)N(Cc3ccccc3)c3cccc(Br)c32)C=C1c1ccccc1 [6e],IC50,Human PTP1B; [2],2.1 ± 0.31 µM
O=C1O[C@@H]([C@@]2(O)C(=O)N(Cc3ccccc3)c3cccc(I)c32)C=C1c1ccccc1 [6f],PTP1B lC50,Human PTP1B; [3],8.17 ± 1.06 µM
Cc1ccc2c(c1Br)[C@@](O)([C@H]1C=C(c3ccccc3)C(=O)O1)C(=O)N2Cc1ccccc1 [6g],PTP1B lC50,Human PTP1B; [3],8.13 ± 0.06 µM
O=C1O[C@@H]([C@@]2(O)C(=O)N(Cc3ccccc3)c3ccc(Cl)c(Cl)c32)C=C1c1ccccc1 [6i],IC50,Human PTP1B; [2],3.02 ± 0.22 µM
O=C1O[C@@H]([C@@]2(O)C(=O)N(Cc3ccccc3)c3ccc(Cl)cc32)C=C1c1ccccc1 [6j],PTP1B lC50,Human PTP1B; [3],15.17 ± 1.02 µM
Cc1ccc2c(c1)C(O)(C1C=C(c3ccccc3)C(=O)O1)C(=O)N2Cc1ccccc1 (stereo not drawn) [6k],IC50,"Human PTP1B; read-out: PTP1B lC50, DiFMUP assay at room temperature, positive control ABBV-CLS-484, negative control DMSO",9.08 ± 0.12 µM
COc1ccc2c(c1)[C@@](O)([C@H]1C=C(c3ccccc3)C(=O)O1)C(=O)N2Cc1ccccc1 [6l],PTP1B lC50,Human PTP1B; [3],21.65 ± 1.48 µM
COc1ccc2c(c1)N(Cc1ccccc1)C(=O)[C@]2(O)[C@H]1C=C(c2ccccc2)C(=O)O1 [6p],PTP1B lC50,Human PTP1B; [3],8.23 ± 0.91 µM
O=C1O[C@@H]([C@@]2(O)C(=O)N(Cc3ccc(C(=O)NC45CC6CC(CC(C6)C4)C5)cc3)c3cccc(Br)c32)C=C1c1ccccc1 [6s],PTP1B lC50,Human PTP1B; [3],2.11 ± 0.22 µM
CC1(C)[C@H]2CC=C(CCOC(=O)c3ccc(CN4C(=O)[C@](O)([C@H]5C=C(c6ccccc6)C(=O)O5)c5c(Br)cccc54)cc3)[C@@H]1C2 [6u],PTP1B lC50,Human PTP1B; [3],0.29 ± 0.02 µM
"O=C1O[C@@H]([C@@]2(O)C(=O)N(Cc3ccccc3)c3cccc(Br)c32)C=C1c1ccc2ccccc2c1 [(R, R)-3ak]",IC50,Human PTP1B,3.31 ± 0.2 µM
"O=C1O[C@H]([C@]2(O)C(=O)N(Cc3ccccc3)c3cccc(Br)c32)C=C1c1ccc2ccccc2c1 [(S, S)-3ak]",IC50,Human PTP1B,0.81 ± 0.1 µM
same,"potency relative to the enantiomer (R, R)-3ak",Human PTP1B; DiFMUP assay,3 fold
same,IC50 against PTP1B,"Human PTP1B; DiFMUP assay, values in text and figure",submicromolar
same,synergy index = (IC50 IFNγ− – IC50 IFNγ+)/IC50 IFNγ+,MB231 cells,3.49

# From paper PMC12203432, “Multicatalysis-Enabled Multicomponent Reactions Generate a PTP1B Inhibitor” (ACS Central Science, 2025)
